Data from patent US11084829B2, “Ubiquitin-specific-processing protease 7 (USP7) modulators and uses thereof” (RAPT THERAPEUTICS, INC., priority 2018, dated 2021).
pIC50: −log10 of the molar value.

Molecular target: USP7 (Homo sapiens, UniProt Q93009)
Assay: USP7 inhibitory potency (IC50)
Assay type: biochemical
Description: Activity for compounds described herein is provided in Table 2, wherein potency levels are provided as follows: (Potency: USP7 IC50: A<0.01 μM; B=0.01-0.1 μM; C=>0.1 μM.

USP7, sequence (Q93009 whole entry): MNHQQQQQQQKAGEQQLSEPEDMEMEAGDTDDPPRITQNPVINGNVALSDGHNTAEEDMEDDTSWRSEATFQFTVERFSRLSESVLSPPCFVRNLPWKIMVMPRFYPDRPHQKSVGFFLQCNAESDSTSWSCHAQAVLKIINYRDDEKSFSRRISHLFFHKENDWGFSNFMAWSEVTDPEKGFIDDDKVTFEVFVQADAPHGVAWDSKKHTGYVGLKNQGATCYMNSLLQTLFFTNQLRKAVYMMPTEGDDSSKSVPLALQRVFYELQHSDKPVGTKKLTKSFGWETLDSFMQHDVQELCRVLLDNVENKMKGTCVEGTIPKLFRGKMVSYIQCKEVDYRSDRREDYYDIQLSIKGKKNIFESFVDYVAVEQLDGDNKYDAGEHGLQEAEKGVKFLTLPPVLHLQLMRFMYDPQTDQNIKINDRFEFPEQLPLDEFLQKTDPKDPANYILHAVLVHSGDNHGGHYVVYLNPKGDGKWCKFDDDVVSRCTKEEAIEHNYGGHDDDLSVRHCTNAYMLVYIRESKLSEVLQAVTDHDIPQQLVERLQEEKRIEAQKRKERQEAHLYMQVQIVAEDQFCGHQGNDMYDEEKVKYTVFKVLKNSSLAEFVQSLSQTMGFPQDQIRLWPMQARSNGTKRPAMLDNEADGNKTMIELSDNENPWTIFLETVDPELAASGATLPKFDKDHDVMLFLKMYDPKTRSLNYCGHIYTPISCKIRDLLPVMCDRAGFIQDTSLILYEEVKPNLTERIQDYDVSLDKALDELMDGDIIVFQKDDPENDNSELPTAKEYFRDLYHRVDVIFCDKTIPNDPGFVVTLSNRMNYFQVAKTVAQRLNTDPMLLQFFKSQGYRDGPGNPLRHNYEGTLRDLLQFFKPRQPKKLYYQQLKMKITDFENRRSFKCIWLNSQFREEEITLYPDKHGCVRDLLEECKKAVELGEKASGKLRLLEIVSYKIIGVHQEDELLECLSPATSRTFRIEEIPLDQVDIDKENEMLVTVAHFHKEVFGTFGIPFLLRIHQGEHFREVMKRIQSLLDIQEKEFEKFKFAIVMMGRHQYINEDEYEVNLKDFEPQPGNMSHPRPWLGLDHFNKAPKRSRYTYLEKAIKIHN

| SMILES | pIC50 |
| --- | --- |
| Cc1cc(Cl)cc(-c2ncnc3cc(CN4C(=O)CNC4=O)sc23)c1C[C@@H]1CNCC(C)(C)O1 [Example 273, (R)-3-((4-(5-chloro-2-((6,6-dimethylmorpholin-2-yl)methyl)-3-methylphenyl)thieno[3,2-d]pyrimidin-6-yl)methyl)imidazolidine-2,4-dione] | > 8.00 |
| Cc1cc(Cl)cc(-c2ncnc3cc(CN4C(=O)C5CC5C4=O)sc23)c1CC1CNCC2(CCC2)O1 (centres unmarked) [Example 207, 3-((4-(2-((5-oxa-8-azaspiro[3.5]nonan-6-yl)methyl)-5-chloro-3-methylphenyl)thieno[3,2-d]pyrimidin-6-yl)methyl)-3-azabicyclo[3.1.0]hexane-2,4-dione] | > 8.00 |
| Cc1cc(Cl)cc(-c2ccnc3cc(CN4C(=O)CCC4=O)sc23)c1CN1CCNC(C)(C)C1 [Example 10, 1-((7-(5-chloro-2-((3,3-dimethylpiperazin-1-yl)methyl)-3-methylphenyl)thieno[3,2-b]pyridin-2-yl)methyl)pyrrolidine-2,5-dione] | > 8.00 |
| CN1CCC(=O)N(Cc2cc3nccc(-c4cc(Cl)cc(Cl)c4CC4CNCCO4)c3s2)C1=O (centres unmarked) [Example 130, 3-((7-(3,5-dichloro-2-(morpholin-2-ylmethyl)phenyl)thieno[3,2-b]pyridin-2-yl)methyl)-1-methyldihydropyrimidine-2,4(1H,3H)-dione] | > 8.00 |
| Cc1cc(Cl)cc(-c2ncnc3cc(Cn4c(C#N)cccc4=O)sc23)c1C[C@@H]1CNCC(C)(C)O1 [Example 262, (R)-1-((4-(5-chloro-2-((6,6-dimethylmorpholin-2-yl)methyl)-3-methylphenyl)thieno[3,2-d]pyrimidin-6-yl)methyl)-6-oxo-1,6-dihydropyridine-2-carbonitrile] | < 7.00 |
| C[C@H]1CNCCN1Cc1c(F)cc(F)cc1-c1ncnc2cc(CN3C(=O)C4CC4C3=O)sc12 (stereo partly drawn) [Example 74, 3-((4-(3,5-difluoro-2-(((S)-2-methylpiperazin-1-yl)methyl)phenyl)thieno[3,2-d]pyrimidin-6-yl)methyl)-3-azabicyclo[3.1.0]hexane-2,4-dione] | < 7.00 |
| Cc1cc(Cl)cc(-c2ncnc3cc(CN4C(=O)CCC4=O)sc23)c1C[C@@H]1CNCC(C)(C)O1 [Example 215, (R)-1-((4-(5-chloro-2-((6,6-dimethylmorpholin-2-yl)methyl)-3-methylphenyl)thieno[3,2-d]pyrimidin-6-yl)methyl)pyrrolidine-2,5-dione] | > 8.00 |
| Cc1cc(Cl)cc(-c2ncnc3cc(CN4C(=O)COCC4=O)sc23)c1CC1CNCCO1 (centres unmarked) [Example 169, 4-((4-(5-chloro-3-methyl-2-(morpholin-2-ylmethyl)phenyl)thieno[3,2-d]pyrimidin-6-yl)methyl)morpholine-3,5-dione] | > 8.00 |
| Cc1cc(Cl)cc(-c2ncnc3cc(CN4C(=O)C5CC5C4=O)sc23)c1C[C@H]1CNCCO1 (stereo partly drawn) [Example 181, 3-((4-(5-chloro-3-methyl-2-(((S)-morpholin-2-yl)methyl)phenyl)thieno[3,2-d]pyrimidin-6-yl)methyl)-3-azabicyclo[3.1.0]hexane-2,4-dione] | 7.00 to 8.00 |
| Cc1cc(Cl)cc(-c2ccnc3cc(CN4C(=O)CCC4=O)sc23)c1CC1CNCCO1 (centres unmarked) [Example 96, 1-((7-(5-chloro-3-methyl-2-(morpholin-2-ylmethyl)phenyl)thieno[3,2-b]pyridin-2-yl)methyl)pyrrolidine-2,5-dione] | 7.00 to 8.00 |
| Cc1cc(Cl)cc(-c2ncnc3cc(Cn4c(=O)ccn(C5CCC5)c4=O)sc23)c1CC1CNCCO1 (centres unmarked) [Example 166, 3-((4-(5-chloro-3-methyl-2-(morpholin-2-ylmethyl)phenyl)thieno[3,2-d]pyrimidin-6-yl)methyl)-1-cyclobutylpyrimidine-2,4(1H,3H)-dione] | > 8.00 |
| Cc1cc(Cl)cc(-c2ncnc3cc(CN4C(=O)CSC4=O)sc23)c1CC1CNCCO1 (centres unmarked) [Example 171, 3-((4-(5-chloro-3-methyl-2-(morpholin-2-ylmethyl)phenyl)thieno[3,2-d]pyrimidin-6-yl)methyl)thiazolidine-2,4-dione] | > 8.00 |
| O=C1CCC(=O)N1Cc1cc2ncnc(-c3cc(Cl)cc(Cl)c3CC3CNCCO3)c2s1 (centres unmarked) [Example 204, 1-((4-(3,5-dichloro-2-(morpholin-2-ylmethyl)phenyl)thieno[3,2-d]pyrimidin-6-yl)methyl)pyrrolidine-2,5-dione] | > 8.00 |
| Cc1cc(Cl)cc(-c2ncnc3cc(CN4C(=O)C5CC5C4=O)sc23)c1CC1CNCC(C)(C)O1 (centres unmarked) [Example 154, 3-((4-(5-chloro-2-((6,6-dimethylmorpholin-2-yl)methyl)-3-methylphenyl)thieno[3,2-d]pyrimidin-6-yl)methyl)-3-azabicyclo[3.1.0]hexane-2,4-dione] | > 8.00 |
| Cc1cc(Cl)cc(-c2ccnc3cc(CN4C(=O)C5CCCN5C4=O)sc23)c1CC1CNCCO1 (centres unmarked) [Example 116, 2-((7-(5-chloro-3-methyl-2-(morpholin-2-ylmethyl)phenyl)thieno[3,2-b]pyridin-2-yl)methyl)tetrahydro-1H-pyrrolo[1,2-c]imidazole-1,3(2H)-dione] | > 8.00 |

Results, then the compound that gave them:

| pIC50 | SMILES |
| --- | --- |
| > 8.00 | Cc1cc(Cl)cc(-c2ncnc3cc(Cn4c(=O)c(F)cn(C(C)C)c4=O)sc23)c1CC1CNCCO1 (centres unmarked) [Example 168, 3-((4-(5-chloro-3-methyl-2-(morpholin-2-ylmethyl)phenyl)thieno[3,2-d]pyrimidin-6-yl)methyl)-5-fluoro-1-isopropylpyrimidine-2,4(1H,3H)-dione] |
| > 8.00 | Cc1cc(Cl)cc(-c2ncnc3cc(CN4C(=O)CCN(CC(F)F)C4=O)sc23)c1CN1[C@@H](C)CNC[C@@H]1C [Example 259, 3-((4-(5-chloro-2-(((2S,6S)-2,6-dimethylpiperazin-1-yl)methyl)-3-methylphenyl)thieno[3,2-d]pyrimidin-6-yl)methyl)-1-(2,2-difluoroethyl)dihydropyrimidine-2,4(1H,3H)-dione] |
| 7.00 to 8.00 | Cc1cc(Cl)cc(-c2ccnc3cc(CN4C(=O)CCC4=O)sc23)c1CN1C[C@@H](C)N[C@@H](C)C1 [Example 19, 1-((7-(5-chloro-2-(((3 S,5R)-3,5-dimethylpiperazin-1-yl)methyl)-3-methylphenyl)thieno[3,2-b]pyridin-2-yl)methyl)pyrrolidine-2,5-dione] |
| > 8.00 | Cc1cc(Cl)cc(-c2ncnc3cc(CN4C(=O)[C@H]5CCCN5C4=O)sc23)c1CN1[C@@H](C)CNC[C@@H]1C [Example 89, (R)-2-((4-(5-chloro-2-(((2S,6S)-2,6-dimethylpiperazin-1-yl)methyl)-3-methylphenyl)thieno[3,2-d]pyrimidin-6-yl)methyl)tetrahydro-1H-pyrrolo[1,2-c]imidazole-1,3(2H)-dione] |
| > 8.00 | Cc1cc(Cl)cc(-c2ncnc3cc(CN4C(=O)C5CCC5C4=O)sc23)c1CC1CNCCO1 (centres unmarked) [Example 170, 3-((4-(5-chloro-3-methyl-2-(morpholin-2-ylmethyl)phenyl)thieno[3,2-d]pyrimidin-6-yl)methyl)-3-azabicyclo[3.2.0]heptane-2,4-dione] |
| > 8.00 | Cc1cc(Cl)cc(-c2ncnc3cc(CN4C(=O)C5CC5C4=O)sc23)c1C[C@@H]1CN(C(=O)C(F)(F)F)CCO1 (stereo partly drawn) [Example 199, 3-((4-(5-chloro-3-methyl-2-(((R)-4-(2,2,2-trifluoroacetyl)morpholin-2-yl)methyl)phenyl)thieno[3,2-d]pyrimidin-6-yl)methyl)-3-azabicyclo[3.1.0]hexane-2,4-dione] |
| > 8.00 | Cc1cc(Cl)cc(-c2ncnc3cc(CN4C(=O)CCC4=O)sc23)c1CC1CNCC(C)(C)O1 (centres unmarked) [Example 190, 1-((4-(5-chloro-2-((6,6-dimethylmorpholin-2-yl)methyl)-3-methylphenyl)thieno[3,2-d]pyrimidin-6-yl)methyl)pyrrolidine-2,5-dione] |
| > 8.00 | Cc1cc(Cl)cc(-c2ncnc3cc(CN4C(=O)CC[C@@H]4C(F)F)sc23)c1CC1CNCC(C)(C)O1 (stereo partly drawn) [Example 230, (5R)-1-((4-(5-chloro-2-((6,6-dimethylmorpholin-2-yl)methyl)-3-methylphenyl)thieno[3,2-d]pyrimidin-6-yl)methyl)-5-(difluoromethyl)pyrrolidin-2-one] |
| > 8.00 | Cc1cc(Cl)cc(-c2ccnc3cc(CN4C(=O)C5C(C4=O)C5(C)C)sc23)c1CN1[C@@H](C)CNC[C@@H]1C (stereo partly drawn) [Example 28, 3-((7-(5-chloro-2-(((2S,6S)-2,6-dimethylpiperazin-1-yl)methyl)-3-methylphenyl)thieno[3,2-b]pyridin-2-yl)methyl)-6,6-dimethyl-3-azabicyclo[3.1.0]hexane-2,4-dione] |
| > 8.00 | Cc1cc(Cl)cc(-c2ccnc3cc(CN4C(=O)CCCC4=O)sc23)c1CN1C[C@@H](C)NC[C@@H]1C [Example 45, 1-((7-(5-chloro-2-(((2S,5R)-2,5-dimethylpiperazin-1-yl)methyl)-3-methylphenyl)thieno[3,2-b]pyridin-2-yl)methyl)piperidine-2,6-dione] |
| 7.00 to 8.00 | Cc1cc(Cl)cc(-c2ccnc3cc(CN4C(=O)CCC4=O)sc23)c1CN1[C@H](C)CNC[C@H]1C [Example 27, 1-((7-(5-chloro-2-(((2R,6R)-2,6-dimethylpiperazin-1-yl)methyl)-3-methylphenyl)thieno[3,2-b]pyridin-2-yl)methyl)pyrrolidine-2,5-dione] |
| > 8.00 | Cc1cc(Cl)cc(-c2ccnc3cc(Cn4c(=O)ccn(C)c4=O)sc23)c1CN1C[C@@H](C)NC[C@@H]1C [Example 46, 3-((7-(5-chloro-2-(((2S,5R)-2,5-dimethylpiperazin-1-yl)methyl)-3-methylphenyl)thieno[3,2-b]pyridin-2-yl)methyl)-1-methylpyrimidine-2,4(1H,3H)-dione] |
| > 8.00 | Cc1cc(Cl)cc(-c2ccnc3cc(CN4C(=O)CCC4=O)sc23)c1CN1C[C@H](C)N[C@@H](C)C1 [Example 25, 1-((7-(5-chloro-2-(((3 S,5 S)-3,5-dimethylpiperazin-1-yl)methyl)-3-methylphenyl)thieno[3,2-b]pyridin-2-yl)methyl)pyrrolidine-2,5-dione] |
| 7.00 to 8.00 | Cc1cc(Cl)cc(-c2ccnc3cc(CN4C(=O)C5C(C4=O)C5(C)C)sc23)c1CN1CCNCC1 (centres unmarked) [Example 6, 3-((7-(5-chloro-3-methyl-2-(piperazin-1-ylmethyl)phenyl)thieno[3,2-b]pyridin-2-yl)methyl)-6,6-dimethyl-3-azabicyclo[3.1.0]hexane-2,4-dione] |
